Data as given in patent US10919943B2, “Mutant proteins enabling agrochemical control of plant gene expression” (The Regents of the University of California, priority 2016, dated 2021).

B1: HAB1*: catalytically inactive orthogonal pentuple HAB1 mutant (protein, listed as Arabidopsis thaliana)
chain: MTPAVAMTLSLAANTMCESSPVEITQLKNVTDAADLLSDSENQSFCNGGTECTMEDVSELEEVGEQDLLKTLSDTRSGSSNVFDEDDVLSVVEDNSAVISEGLLVVDAGSELSLSNTAMEIDNGRVLATAIIVGESSIEQVPTAEVLIAGVNQDTNTSEVVIRLPDENSNHLVKGRSVYELDCIPLWGTVSIQGNASEMEAAFAVSPHFLKLPIKMLMGDHEGMSPSLTHLTGHFFGVYDGHGGHKVADYCRDRLHFALAEEIERIKDELCKRNTGEGRQVQWDKVFTSCFLTVDGEIEGKIGRAVVGSSDKVLEAVADETVGSTAVVALVCSSHIVVSNCGDSRAVLFRGKEAMPLSVDHKPDREDEYARIENAGGKVIQWQGARVFGRLAMSRSIGDRYLKPYVIPEPEVTFMPRSREDECLILASDGLWDVMNNQEVCEIARRRILMWHKKNGAPPLAERGKGIDPACQAAADYLSMLALQKGSKDNISIIVIDLKAQAKFKTRT

Legend:
pMANDI-UAS-GFP-LEAFY = assay: Mandipropamid induction of GFP-LEAFY in T1 leaf tissue, GFP fluorescence; type: in vivo, Arabidopsis; conditions: 10 μM mandipropamid, 24 hours; FIG. 15B
Description: To test the efficacy of our transcriptional circuit in planta, we constructed a 3 component system for inducing genes of interest using the mandipropamid mediated interaction of a BD-PYR1*/AD-HAB1* to drive genes of interest from a GAL4-responsive UAS (FIG. 15A). To do this we constructed a BD-PYR1*^-MANDI fusion protein and NLSSV40-VP64-HAB1*-N7 fusion protein and used these to drive gene expression from a synthetic UAS-minimal-35S promoter. To make the desired vector, the three required components were separately cloned into vectors that provided necessary elements (such as the Gal4 DNA binding domain, or 35S-promoter-nos-terminator cassettes). After this, the three components were combined into a plant binary transformation vector.
To combine all three components into a single vector, a 35S::NLS-VP64-HAB1*-N7-Nos-terminator cassette was PCR amplified from pVP64-HAB1*-N7 and cloned into pBD-PYR1* into its SacI site, upstream of the BD-PYR1* expression cassette, yielding pAD-BD. […]
Having developed a simple induction system, we tested it by examining the expression of the flowering regulator LEAFY. […] 24 hours after transfer, both tissues were examined using a GFP fluorescence dissecting scope and documented under identical camera and microscope settings (FIG. 15B).

PYR1*^-MANDI = biological target: T1, PYR1*^-MANDI (Arabidopsis thaliana, UniProt O49686, A160V/F108A/F159V/K59R/M158I/S122G/T162D/V81I/Y58H); assay: Yeast two hybrid, mandipropamid-induced interaction of HAB1 variants with pBD-PYR1*^-MANDI; type: cell-based; conditions: FIG. 6
T1 construct: expressed in transfected cells; host or cells: S. cerevisiae strain MAV99 (selection)
T1 sequence (O49686 1-191 Y58H/K59R/V81I/F108A/S122G/M158I/F159V/A160V/T162D): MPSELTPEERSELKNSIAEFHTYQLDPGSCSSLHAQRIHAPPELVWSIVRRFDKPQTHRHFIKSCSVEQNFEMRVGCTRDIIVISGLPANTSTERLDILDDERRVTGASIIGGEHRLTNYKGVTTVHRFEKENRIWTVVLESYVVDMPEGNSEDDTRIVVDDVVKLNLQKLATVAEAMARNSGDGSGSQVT
T1 sequence (Q9CAJ0 4-511 R199A/D204A/S322D/V393R/R505A partner): B1 chain
Description: To investigate the effects of overexpressing HAB1^!-2 in Arabidopsis, we used Agrobacterium mediated transformation to generate 35S::GFP-HAB1^!-2 transgenic plants. HAB1^!-2 was cloned from pACT-HAB1^!-2 into pEGAD, a binary vector suitable for plant transformation, generating a 35S-driven GFP-HAB1^!-2 fusion protein. The clone was transformed into Agrobacterium and the floral dip method used to transform Arabidopsis. After selection of T0 seed on soil containing glufosinate, several T1 seedlings were identified. […] As an alternate strategy, we eliminated HAB1's catalytic activity by introducing a mutation in a conserved metal-ion binding residue (D204), which is homologous to D131A mutation in ABI1, previously shown to eliminate phosphatase activity without disrupting wild type receptor-ABI1 interactions (Liang et al., 2011). We used QuickChange mutagenesis to introduce the D204A mutation into pACT-HAB1^!-2, generating pACT-HAB1^!-3. When tested for mandipropamid induced interactions with pBD-PYR1*^-MANDI, HAB1^!-3 is ˜10-fold less sensitive to mandipropamid relative to HAB1^!-2 (FIG. 5).
D204 is located within HAB1's catalytic active site and binds to one of 3 catalytic Mg^++ ions that participate in catalysis. […] It is likely that disruptions to active site structure introduced by D204A destabilize the PYR1*^-MANDI/HAB1^!-3 interaction relative to HAB1^!-2. We reasoned that suppressor mutations in other HAB1 interface or active site residues could restore sensitivity by strengthening interactions with PYR1*^-MANDI. To identify such suppressors, we mutagenized the pACT-HAB1^!-3 template using NNK mutagenesis in 28 residues located with at the PYR1 binding interface. The residues targeted were: R199, S200, E201, E203, D243, G244, H245, G246, G247, S322, E323, T324, D346, K365, K381, 1383, Q384, W385, Q386, R389, F391, G392, Y404, S431, G433, D436, D492 and N394. The pACT-HAB1^!-3 template was mutagenized in 28 separate NNK mutagenesis reactions using the QuickChange protocol. Mini-libraries, each containing ˜1000 clones, were made for each NNK reaction and plasmid DNA for the 28 mutations prepared, pooled, and then transformed into S. cerevisiae strain MAV99 co-transformed with pBD-PYR1*^-MANDI, and then plated onto selective SD(-Leu,-Trp,-Ura) agar media supplemented with 500 nM mandipropamid. […] S322D and R199A were combined using the Lightning Multi-site Mutagenesis™ (Agilent, USA) method, and the resultant pentuple mutant tested in combination with pBD-PYR1*^-MANDI for sensitivity to mandipropamid using β-galactosidase assays.

Molecule | GFP-LEAFY induction (pMANDI-UAS-GFP-LEAFY) | mandipropamid sensitivity for binding to pBD-PYR1*^-MANDI (PYR1*^-MANDI)
C#CCOc1ccc(CCNC(=O)C(OCC#C)c2ccc(Cl)cc2)cc1OC (centres unmarked) [mandipropamid] | GFP-LEAFY induction in response to mandipropamid | –
B1 | – | nM sensitivity
